Experiments:
[1] = RP-HPLC retention time as measure of hydrophobicity; type: physicochemical; conditions: analytical Kromasil C18 column 4.6 mm × 250 mm, 5.0 μm, acetonitrile, flow 1.0 mL/min, used as measure of hydrophobicity
Protocol: The hydrophobicities of the peptides in solution were reliably mirrored by their high-performance liquid chromatography (HPLC)retention times. The retention times for peptide HI2, HW2, HV2, HF2, and PG-1 were 11.13, 10.55, 12.20, 18.06 and 12.56 min, respectively, indicating the following hydrophobic order: HF2 > PG-1 > HV2 > HI2 > HW2(Table 1).
The designed peptides were synthesized and purified by GL Biochem (Shanghai, China). Acetonitrile was used on an analytical Kromasil C18 column (4.6 mm × 250 mm, 5.0 μm, LC 3000, Beijing, China), and the purity of the peptides was determined to be greater than 95% via reversed-phase high-performance liquid chromatography (RP-HPLC) with a flow rate of 1.0 mL/min. The experimental molecular weights of the peptides were evaluated via ESI-MS analysis, and these values were very close to the calculated masses. Next, the peptides were dissolved in deionized water at a concentration of 2.56 mM, and the peptide solutions were stored at −20 °C.

[2] = test system: E. coli ATCC25922; assay: microbe, parasite or virus in culture; conditions: E. coli 25922; MHB, about 1 × 10^5 CFU/mL, 37 °C, 24 h, 0.25-128 μM; three independent experiments
Protocol: (§1) The minimum inhibitory concentration (MIC) was measured using a broth microdilution method to determine the in vitro antimicrobial activity of the peptides. Bacteria were inoculated into MHB and incubated overnight at 37 °C until the bacteria were in log phase growth. Next, we corrected the bacterial concentration to approximately 1 × 10^5 CFU/mL using MHB. The peptides were added to 96-well plates containing 0.01% acetic acid and 0.2% bovine serum albumin at final concentrations ranging from 0.25 to 128 μM. After incubation at 37 °C for 24 h, the absorbance was measured at 492 nm using a microplate reader (Tecan GENios F129004, Tecan, Austria). Broth containing microbes and […] were used as positive and negative controls, respectively. The lowest peptide concentration with no increase in absorbance compared to that of the negative control was defined as the MIC. The experiments were independently performed three times.

[3] = test system: E. coli K88; assay: microbe, parasite or virus in culture; conditions: E. coli K88; MHB, about 1 × 10^5 CFU/mL, 37 °C, 24 h; three independent experiments
Protocol: as §1

[4] = test system: E. coli K99; assay: microbe, parasite or virus in culture; conditions: E. coli K99; MHB, about 1 × 10^5 CFU/mL, 37 °C, 24 h; three independent experiments
Protocol: as §1

[5] = test system: E. coli UB1005; assay: microbe, parasite or virus in culture; conditions: E. coli UB1005; MHB, about 1 × 10^5 CFU/mL, 37 °C, 24 h; three independent experiments
Protocol: as §1

[6] = test system: P. aeruginosa ATCC27853; assay: microbe, parasite or virus in culture; conditions: P. auruginosa 27853; MHB, about 1 × 10^5 CFU/mL, 37 °C, 24 h; three independent experiments
Protocol: as §1

[7] = test system: S. aureus ATCC29213; assay: microbe, parasite or virus in culture; conditions: S.aureus 29213; MHB, about 1 × 10^5 CFU/mL, 37 °C, 24 h; three independent experiments
Protocol: as §1

[8] = test system: S. epidermidis ATCC12228; assay: microbe, parasite or virus in culture; conditions: S.epidermidis 12228; MHB, about 1 × 10^5 CFU/mL, 37 °C, 24 h; three independent experiments
Protocol: as §1

[9] = test system: S. pullorum C7913; assay: microbe, parasite or virus in culture; conditions: S.pullorum C7913; MHB, about 1 × 10^5 CFU/mL, 37 °C, 24 h; three independent experiments
Protocol: as §1

[10] = test system: methicillin-resistant S. aureus ATCC43300; assay: microbe, parasite or virus in culture; conditions: S.aureus 43300 (methicillin-resistant); MHB, about 1 × 10^5 CFU/mL, 37 °C, 24 h; three independent experiments
Protocol: as §1

[11] = test system: Gram-negative bacteria; assay: MICs against Gram-negative strains (geometric mean, range); type: cell-based; conditions: Gram-negative strains; 256 μM used where no activity at 128 μM
Protocol: as §1

[12] = test system: Gram-positive and Gram-negative bacteria; conditions: all strains; 256 μM used where no activity at 128 μM
Protocol: as §1

[13] = test system: Gram-positive bacteria; conditions: Gram-positive strains; 256 μM used where no activity at 128 μM
Protocol: as §1

[14] = test system: E. coli ATCC25922; assay: Salt sensitivity assay (MIC in presence of physiological salts); type: cell-based; design: unit not given here
Protocol: Bacteria were inoculated into MHB and incubated overnight at 37 °C until the bacteria were in log phase growth. Next, we corrected the bacterial concentration to approximately 1 × 10^5 CFU/mL using MHB. […] After incubation at 37 °C for 24 h, the absorbance was measured at 492 nm using a microplate reader (Tecan GENios F129004, Tecan, Austria). Broth containing microbes and […] were used as positive and negative controls, respectively. The lowest peptide concentration with no increase in absorbance compared to that of the negative control was defined as the MIC. The experiments were independently performed three times. The effects of salt ions on the antibacterial activities of the antimicrobial peptides were evaluated. Different salt ion concentrations were added to BSA peptide dilutions, and the next steps followed the MIC measurement method. […] These tests were independently repeated three times.

[15] = test system: E. coli ATCC25922; assay: Swimming motility assay; type: cell-based; conditions: E. coli ATCC25922, 0.3% agar, 1–8 μM peptide, 37 °C, 20 h; versus untreated control
Protocol: The cell motility assay was performed on LB medium containing 0.3% agar. The peptides were added to 10 mL of medium at final concentrations of 1–8 μM. After mixing well, the mixtures were poured into 6-well plates and dried for 2 h. Subsequently, an overnight culture of E. coli ATCC 25922 was inoculated in the center of the movement plate. After incubation at 37 °C for 20 h, images were taken using a FluoroChemQ system (Cell biosciences, San Jose, CA, USA). The experiment was independently repeated three times.

[16] = test system: E. coli ATCC25922; assay: SEM characterization of cell morphology; type: cell-based; conditions: E. coli ATCC25922, 1 × MIC (HV2 8 μM, PG-1 4 μM), 1 h
Protocol: For the SEM sample preparation, E. coli ATCC25922 cells were cultured at 37 °C to mid-log phase in MH broth with constant shaking at 220 rpm, centrifuged at 1000 g and then adjusted to an OD600 of 0.1–0.2 in PBS. […] Bacteria incubated with PBS served as controls. After the incubation, the mixture was centrifuged at 5000 g for 5 min, and the collected bacteria were washed three times with PBS. Approximately 2.5% (w/v) glutaraldehyde was added for fixation at 4 °C overnight, followed by washing three times with PBS. The samples were dehydrated with 50%, 70%, 90%, 100% ethanol for 10 min. A mixture of ethanol and tert-butanol was added to the dried bacterial cells for 30 min, and then t-butanol was added for 1 h. Finally, the samples were dehydrated and coated with liquid CO2 in a critical point dryer and then observed using a Hitachi S-4800 SEM (Hitachi, Tokyo, Japan).

[17] = test system: human red blood cells (hRBCs); assay: Hemolytic activity; conditions: 1 h, OD 570 nm
Protocol: Briefly, collected human red blood cells (hRBCs) were washed three times with PBS (pH 7.4) and diluted to 1% in PBS. Next, equal volumes of blood cells were mixed with different peptide concentrations in 96-well plates followed by incubated at 37 °C for 1 h. The mixtures were centrifuged (1000 g, 5 min), and the supernatants were transferred to 96-well plates to measure the optical density (OD) at 570 nm. Untreated blood cells were used as negative controls, and 0.1% Triton X-100-treated blood cells were used as positive controls. The minimum peptide concentration corresponding to 5% hemolytic activity was defined as the minimal hemolytic concentration (MHC). These assays were independently repeated three times.

With “RGGRLCYCRRFCVCVGR-NH2 [PG-1, Protegrin-1, reference compound]” the “Retention Time” value [1] was 12.56 min, the MIC [2] was 4 µM and the MIC [3] was 2 µM. It also gave an MIC [4] of 2 µM, an MIC [5] of 2 µM and an MIC [6] of 8 µM. It also gave an MIC [7] of 2 µM, an MIC [8] of 8 µM and an MIC [9] of 4 µM. The MIC [10] was 8 µM, the “MBC (GM), geometric mean of MICs, Gram (−)” value [11] was 3.17 µM and the “MBC (GM), geometric mean of MICs, Gram (+,−)” value [12] was 3.70 µM. The “MBC (GM), geometric mean of MICs, Gram (+)” value [13] was 5.04 µM, the “MIC, FeCl3” value ([14]; E. coli ATCC25922, 4 μM FeCl3, unit not given) was 4 and the “MIC, NH4Cl” value ([14]; E. coli ATCC25922, 6 μM NH4Cl, unit not given) was 4. For the same substance, the “MIC, ZnCl2” value ([14]; E. coli ATCC25922, 8 μM ZnCl2, unit not given) was 2, the “MIC, MgCl2” value ([14]; E. coli ATCC25922, 1 mM MgCl2, unit not given) was 4 and the “MIC, KCl” value ([14]; E. coli ATCC25922, 4.5 mM KCl, unit not given) was 4. The “MIC, NaCl” value ([14]; E. coli ATCC25922, 150 mM NaCl, unit not given) was 4, the “MIC, Control” value ([14]; E. coli ATCC25922, absence of physiological salts, no unit printed in Table 3 (Table 2 MIC in μM)) was 4 and the “swimming motility (diameter of swimming bacteria)” value [15] was “significantly reduced the diameter of the swimming bacteria”. The “cell morphology by SEM” value [16] was “rough and wrinkled”, the hemolysis rate ([17]; at the highest concentration (128 μM), 1% hRBC in PBS, 37 °C, 0.1% Triton X-100 positive control) was 48.13% and the “MHC, minimum hemolytic concentration” value ([17]; concentration causing 5% hemolysis of hRBC, 1% hRBC in PBS pH 7.4, 37 °C, repeated three times) was 4 µM.

Source: PMC6718988, “Bioactivity and Bactericidal Mechanism of Histidine-Rich β-Hairpin Peptide Against Gram-Negative Bacteria” (International Journal of Molecular Sciences, 2019)
